#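 Cultured in 96-well plates, cells were exposed to test compound for 48 hours across five concentrations. GI50 = concentration required for 50% inhibition of growth.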 Active and inactive are the calls of the source. Rule as the data show it: active = GI50 up to about 1.1 µM and inactive = higher.
# Legend:
# Test in all cases: inhibition of tumour cell growth, NCI panel, 48 h
# [1] = system: OVCAR-5
# [2] = system: NCI-H226
# [3] = system: KM12
# [4] = system: SR
# [5] = system: SF-295
# [6] = system: LOX IMVI
# [7] = system: Malme-3M
# [8] = system: MDA-MB-231
# [9] = system: HT-29
# [10] = system: HOP-62
# [11] = system: NCI-H23
# [12] = system: MCF7
# [13] = system: CAKI-1
# [14] = system: TK-10
# [15] = system: UACC-257
# [16] = system: U-251
# [17] = system: HCT-15
# [18] = system: DU-145
# [19] = system: M14
# [20] = system: HCT-116
# [21] = system: NCI-H460
# [22] = system: OVCAR-8
# [23] = system: SF-539
# [24] = system: EKVX
# [25] = system: CCRF-CEM
# [26] = system: SNB-75
# [27] = system: COLO 205
# [28] = system: HOP-92
# [29] = system: OVCAR-4
# [30] = system: SNB-19
# [31] = system: SN12C
# [32] = system: HL-60
# [33] = system: IGROV-1
# [34] = system: 786-0
# [35] = system: K562
# [36] = system: NCI-H522
# [37] = system: NCI/ADR-RES
# [38] = system: RPMI-8226
# [39] = system: A549
# [40] = system: BT-549
# [41] = system: PC-3
# [42] = system: SF-268
# [43] = system: SK-MEL-2
# [44] = system: SW-620
# [45] = system: ACHN
# [46] = system: SK-MEL-5
# [47] = system: HCC 2998
# [48] = system: SK-MEL-28
# [49] = system: MDA-MB-435
# [50] = system: OVCAR-3
# [51] = system: UACC-62
# [52] = system: A498
# [53] = system: UO-31
# [54] = system: T47D
# [55] = system: RXF 393
# [56] = system: MOLT-4
# [57] = system: Hs-578T
# [58] = system: SK-OV-3
smiles,measurement,setting,value
CC1CCC(C(C)C)C(OC(=O)NCn2cc(-c3ccccc3)nn2)C1 (stereo not drawn),GI50,[1],> 100 µM (inactive)
same,GI50,[2],75.2 µM (inactive)
same,GI50,[3],> 100 µM (inactive)
same,GI50,[4],> 100 µM (inactive)
same,GI50,[5],> 100 µM (inactive)
same,GI50,[6],> 100 µM (inactive)
same,GI50,[7],> 100 µM (inactive)
same,GI50,[8],> 100 µM (inactive)
same,GI50,[9],> 100 µM (inactive)
same,GI50,[10],25.6 µM (inactive)
same,GI50,[11],> 100 µM (inactive)
same,GI50,[12],> 100 µM (inactive)
same,GI50,[13],> 100 µM (inactive)
same,GI50,[14],75.5 µM (inactive)
same,GI50,[15],> 100 µM (inactive)
same,GI50,[16],> 100 µM (inactive)
same,GI50,[17],> 100 µM
same,GI50,[18],> 100 µM (inactive)
same,GI50,[19],> 100 µM (inactive)
same,GI50,[20],> 100 µM (inactive)
same,GI50,[21],> 100 µM (inactive)
same,GI50,[22],75.5 µM (inactive)
same,GI50,[23],48.3 µM (inactive)
same,GI50,[24],> 100 µM (inactive)
same,GI50,[25],> 100 µM (inactive)
same,GI50,[26],25.6 µM (inactive)
same,GI50,[27],> 100 µM (inactive)
same,GI50,[28],> 100 µM (inactive)
same,GI50,[29],57.8 µM (inactive)
same,GI50,[30],33.9 µM (inactive)
same,GI50,[31],> 100 µM (inactive)
same,GI50,[32],> 100 µM (inactive)
same,GI50,[33],> 100 µM (inactive)
same,GI50,[34],41.2 µM (inactive)
same,GI50,[35],> 100 µM (inactive)
same,GI50,[36],> 100 µM (inactive)
same,GI50,[37],> 100 µM (inactive)
same,GI50,[38],> 100 µM (inactive)
same,GI50,[39],> 100 µM (inactive)
same,GI50,[40],> 100 µM (inactive)
same,GI50,[41],> 100 µM (inactive)
same,GI50,[42],58.7 µM (inactive)
same,GI50,[43],> 100 µM (inactive)
same,GI50,[44],> 100 µM (inactive)
same,GI50,[45],> 100 µM (inactive)
same,GI50,[46],> 100 µM (inactive)
same,GI50,[47],85.1 µM (inactive)
same,GI50,[48],> 100 µM (inactive)
CSC12c3cc(C)n(-c4ccccc4)c3CC(C)(C)CN1C(=O)C2Oc1ccccc1 (stereo not drawn),GI50,[1],> 100 µM (inactive)
same,GI50,[2],24.9 µM (inactive)
same,GI50,[3],> 100 µM (inactive)
same,GI50,[4],11.3 µM (inactive)
same,GI50,[5],8.18 µM (inactive)
same,GI50,[6],17.5 µM (inactive)
same,GI50,[49],> 100 µM (inactive)
same,GI50,[8],> 100 µM (inactive)
same,GI50,[10],> 100 µM (inactive)
same,GI50,[50],> 100 µM (inactive)
same,GI50,[11],27.9 µM (inactive)
same,GI50,[12],18 µM (inactive)
same,GI50,[13],> 100 µM (inactive)
same,GI50,[51],29.3 µM (inactive)
same,GI50,[15],19.1 µM (inactive)
same,GI50,[16],93.5 µM (inactive)
same,GI50,[17],28.1 µM
same,GI50,[18],> 100 µM (inactive)
same,GI50,[19],12.4 µM (inactive)
same,GI50,[52],54 µM (inactive)
same,GI50,[53],25.7 µM (inactive)
same,GI50,[20],12.1 µM (inactive)
same,GI50,[21],29.1 µM (inactive)
same,GI50,[22],97.3 µM (inactive)
same,GI50,[23],> 100 µM (inactive)
same,GI50,[24],26.5 µM (inactive)
same,GI50,[54],> 100 µM (inactive)
same,GI50,[25],16.6 µM (inactive)
same,GI50,[26],> 100 µM (inactive)
same,GI50,[27],30.5 µM (inactive)
same,GI50,[28],7.66 µM (inactive)
same,GI50,[29],> 100 µM (inactive)
same,GI50,[30],> 100 µM (inactive)
same,GI50,[31],> 100 µM (inactive)
same,GI50,[33],> 100 µM (inactive)
same,GI50,[34],83.8 µM (inactive)
same,GI50,[35],32.1 µM (inactive)
same,GI50,[37],62.4 µM (inactive)
same,GI50,[38],7.08 µM (inactive)
same,GI50,[39],11.7 µM (inactive)
same,GI50,[55],> 100 µM (inactive)
same,GI50,[56],10.2 µM (inactive)
same,GI50,[40],85.7 µM (inactive)
same,GI50,[41],35.2 µM (inactive)
same,GI50,[43],72.8 µM (inactive)
same,GI50,[44],40.1 µM (inactive)
same,GI50,[45],36 µM (inactive)
same,GI50,[46],22.4 µM (inactive)
same,GI50,[47],41.2 µM (inactive)
same,GI50,[48],62.7 µM (inactive)
CC(C)(C)[Si](C)(C)OCC1OC(n2cc(I)c(=O)[nH]c2=O)C(O[Si](C)(C)C(C)(C)C)C1O[Si](C)(C)C(C)(C)C (stereo not drawn),GI50,[57],18.6 µM (inactive)
same,GI50,[1],24.8 µM (inactive)
same,GI50,[2],25.6 µM (inactive)
same,GI50,[4],28.1 µM (inactive)
same,GI50,[5],15.2 µM (inactive)
same,GI50,[6],12.5 µM (inactive)
same,GI50,[7],53.3 µM (inactive)
same,GI50,[8],15.3 µM (inactive)
same,GI50,[9],14.3 µM (inactive)
same,GI50,[10],20.1 µM (inactive)
same,GI50,[50],14.3 µM (inactive)
same,GI50,[12],12.9 µM (inactive)
same,GI50,[51],16.7 µM (inactive)
same,GI50,[15],10.5 µM (inactive)
same,GI50,[17],29.8 µM
same,GI50,[19],15.7 µM (inactive)
same,GI50,[53],23.8 µM (inactive)
same,GI50,[21],15.5 µM (inactive)
same,GI50,[22],12.7 µM (inactive)
same,GI50,[24],22 µM (inactive)
same,GI50,[54],17.1 µM (inactive)
same,GI50,[26],16.1 µM (inactive)
same,GI50,[27],19.1 µM (inactive)
same,GI50,[28],22.1 µM (inactive)
same,GI50,[29],55.8 µM (inactive)
same,GI50,[30],19.5 µM (inactive)
same,GI50,[31],26.9 µM (inactive)
same,GI50,[33],17.7 µM (inactive)
same,GI50,[58],32.1 µM (inactive)
same,GI50,[36],9.68 µM (inactive)
same,GI50,[37],> 100 µM (inactive)
same,GI50,[39],11.4 µM (inactive)
same,GI50,[56],10.7 µM (inactive)
same,GI50,[40],24 µM (inactive)
same,GI50,[41],7.24 µM (inactive)
same,GI50,[42],21.1 µM (inactive)
same,GI50,[43],> 10 µM (inactive)
same,GI50,[44],14.6 µM (inactive)
same,GI50,[45],15.2 µM (inactive)
same,GI50,[46],16.6 µM (inactive)

# From ChEMBL document CHEMBL1201862, “PubChem BioAssay data set” (2004)
